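All cell lines were grown in 96-well plates and treated with compound for 48 hours. GI50 is the concentration that inhibits growth by half. TGI marks complete inhibition of growth.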
Columns and labels:
Assay in all cases: NCI tumour cell line growth inhibition, 48 h
SK-OV-3 ovarian = test system: SK-OV-3 ovarian
M14 melanoma = test system: M14 melanoma
OVCAR-8 ovarian = test system: OVCAR-8 ovarian
NCI-H460 lung = test system: NCI-H460 lung
A498 renal = test system: A498 renal
CAKI-1 renal = test system: CAKI-1 renal
HCT-116 colon = test system: HCT-116 colon
IGROV1 ovarian = test system: IGROV1 ovarian
RXF 393 renal = test system: RXF 393 renal
U251 CNS = test system: U251 CNS
SNB-75 CNS = test system: SNB-75 CNS
OVCAR-3 ovarian = test system: OVCAR-3 ovarian
UO-31 renal = test system: UO-31 renal
A549 NSCLC = test system: A549 NSCLC
SW-620 colon = test system: SW-620 colon
SF-539 CNS = test system: SF-539 CNS
MOLT-4 leukemia = test system: MOLT-4 leukemia
SF-295 CNS = test system: SF-295 CNS
DU-145 prostate = test system: DU-145 prostate
TK-10 renal = test system: TK-10 renal
BT-549 breast = test system: BT-549 breast
SR leukemia = test system: SR leukemia
SN12C renal = test system: SN12C renal
UACC-62 melanoma = test system: UACC-62 melanoma
HCT-15 colon = test system: HCT-15 colon
HS 578T breast = test system: HS 578T breast
ACHN renal = test system: ACHN renal
PC-3 prostate = test system: PC-3 prostate
SK-MEL-5 melanoma = test system: SK-MEL-5 melanoma
HCC-2998 colon = test system: HCC-2998 colon
K-562 leukemia = test system: K-562 leukemia
UACC-257 melanoma = test system: UACC-257 melanoma
NCI-H226 lung = test system: NCI-H226 lung
HT29 colon = test system: HT29 colon
MDA-MB-231 breast = test system: MDA-MB-231 breast
EKVX NSCLC = test system: EKVX NSCLC
MALME-3M melanoma = test system: MALME-3M melanoma
SF-268 CNS = test system: SF-268 CNS
COLO 205 colon = test system: COLO 205 colon
OVCAR-5 ovarian = test system: OVCAR-5 ovarian
KM12 colon = test system: KM12 colon
SK-MEL-28 melanoma = test system: SK-MEL-28 melanoma
RPMI-8226 leukemia = test system: RPMI-8226 leukemia
NCI/ADR-RES ovarian = test system: NCI/ADR-RES ovarian
MDA-MB-435 = test system: MDA-MB-435
T-47D breast = test system: T-47D breast
SNB-19 CNS = test system: SNB-19 CNS
HOP-62 NSCLC = test system: HOP-62 NSCLC
CCRF-CEM leukemia = test system: CCRF-CEM leukemia
OVCAR-4 ovarian = test system: OVCAR-4 ovarian
NCI-H522 lung = test system: NCI-H522 lung
HOP-92 NSCLC = test system: HOP-92 NSCLC
LOX IMVI melanoma = test system: LOX IMVI melanoma
786-0 renal = test system: 786-0 renal
HL-60(TB) leukemia = test system: HL-60(TB) leukemia
SK-MEL-2 melanoma = test system: SK-MEL-2 melanoma
MCF7 breast = test system: MCF7 breast
NCI-H23 lung = test system: NCI-H23 lung

## CC1=C2[C@@H](CC1)[C@]1(C)O[C@@](C3CC3)(C[C@H]1OC(=O)CO)[C@H]2OC(=O)/C=C/c1ccccc1
SK-OV-3 ovarian
  GI50: 15.6 µM
  TGI: 29.6 µM
M14 melanoma
  GI50: 16.4 µM
  TGI: 32.3 µM
OVCAR-8 ovarian
  GI50: 0.0834 µM
  TGI: 15.4 µM
NCI-H460 lung
  GI50: 16.6 µM
  TGI: 33.1 µM
A498 renal
  GI50: 0.0998 µM
  TGI: 0.605 µM
CAKI-1 renal
  GI50: 10.9 µM
  TGI: 24 µM
HCT-116 colon
  GI50: 16 µM
  TGI: 30.9 µM
IGROV1 ovarian
  GI50: 19.7 µM
  TGI: 42.7 µM
RXF 393 renal
  GI50: 0.0218 µM
  TGI: 0.858 µM
U251 CNS
  GI50: 15.6 µM
  TGI: 29.3 µM
SNB-75 CNS
  GI50: 12.6 µM
  TGI: 30.5 µM
OVCAR-3 ovarian
  GI50: 15.3 µM
  TGI: 29.2 µM
UO-31 renal
  GI50: 0.636 µM
  TGI: 20.8 µM
A549 NSCLC
  GI50: 13.2 µM
  TGI: 27.3 µM
SW-620 colon
  GI50: 19.1 µM
  TGI: 36.7 µM
SF-539 CNS
  GI50: 16.6 µM
  TGI: 31.6 µM
MOLT-4 leukemia
  GI50: 15.1 µM
  TGI: 36.9 µM
SF-295 CNS
  GI50: 16.1 µM
  TGI: 30.1 µM
DU-145 prostate
  GI50: 16.9 µM
  TGI: 30.9 µM
TK-10 renal
  GI50: 18.7 µM
  TGI: 33.8 µM
BT-549 breast
  GI50: 0.148 µM
  TGI: 7.74 µM
SR leukemia
  GI50: 13.5 µM
  TGI: 39.2 µM
SN12C renal
  GI50: 0.736 µM
  TGI: 25.4 µM
UACC-62 melanoma
  GI50: 14.3 µM
  TGI: 29.4 µM
HCT-15 colon
  GI50: 13.6 µM
  TGI: 29.3 µM
HS 578T breast
  GI50: < 0.0153 µM
  TGI: 0.845 µM
ACHN renal
  GI50: 0.0339 µM
  TGI: 13.2 µM
PC-3 prostate
  GI50: 13 µM
  TGI: 28.4 µM
SK-MEL-5 melanoma
  GI50: 16.7 µM
  TGI: 30.5 µM
HCC-2998 colon
  GI50: 16.9 µM
  TGI: 33.2 µM
K-562 leukemia
  GI50: 16.1 µM
  TGI: 46 µM
UACC-257 melanoma
  GI50: 17.7 µM
  TGI: 32.9 µM
NCI-H226 lung
  GI50: 16.2 µM
  TGI: 36.5 µM
HT29 colon
  GI50: 16.1 µM
  TGI: 32.2 µM
MDA-MB-231 breast
  GI50: 18.3 µM
  TGI: 37.6 µM
EKVX NSCLC
  GI50: 11.5 µM
  TGI: 25.1 µM
MALME-3M melanoma
  GI50: 15.6 µM
  TGI: 32.8 µM
SF-268 CNS
  GI50: 4.03 µM
  TGI: 23.1 µM
COLO 205 colon
  GI50: 17.9 µM
  TGI: 35.7 µM
OVCAR-5 ovarian
  GI50: 17.5 µM
  TGI: 36.5 µM
KM12 colon
  GI50: 16.6 µM
  TGI: 32.3 µM
SK-MEL-28 melanoma
  GI50: 18.6 µM
  TGI: 36.3 µM
RPMI-8226 leukemia
  GI50: 19.8 µM
  TGI: 54.4 µM
NCI/ADR-RES ovarian
  GI50: 0.103 µM
  TGI: 14.1 µM
MDA-MB-435
  GI50: 16.1 µM
  TGI: 30.6 µM
T-47D breast
  GI50: 12.1 µM
  TGI: 36.6 µM
SNB-19 CNS
  GI50: 17.6 µM
  TGI: 35.6 µM
HOP-62 NSCLC
  GI50: 15.4 µM
  TGI: 30.2 µM
CCRF-CEM leukemia
  GI50: 17.4 µM
  TGI: 39.7 µM
OVCAR-4 ovarian
  GI50: 14.5 µM
  TGI: 29.2 µM
NCI-H522 lung
  GI50: 15.9 µM
  TGI: 32.4 µM
HOP-92 NSCLC
  GI50: 13.4 µM
  TGI: 26.7 µM
LOX IMVI melanoma
  GI50: 15.1 µM
  TGI: 31.8 µM
786-0 renal
  GI50: 3.19 µM
  TGI: 25.7 µM
HL-60(TB) leukemia
  GI50: 15.6 µM
  TGI: 42.6 µM
SK-MEL-2 melanoma
  GI50: 18.1 µM
  TGI: 36.1 µM
MCF7 breast
  GI50: 13 µM
  TGI: 31.3 µM
NCI-H23 lung
  GI50: 16.6 µM
  TGI: 36 µM

Source: PubChem BioAssay (NCI)
